Measured values reported in patent US20080070939A1, “LOCAL […] COMPOSITIONS CONTAINING DEXTROROTATORY MORPHINAN DERIVATIVES OR PHARMACEUTICALLY ACCEPTABLE SALTS THEREOF” (CHI MEI FOUNDATION HOSPITAL, priority 2006, published 2008).
Several values for one entry are separate records, joined by “and”; a condition that tells them apart may be missing. Equal values may be shown once. Where a name gives a salt, the structure may show the parent alone. Read-outs that look alike come from different tables or passages of the source.

Tests used:
Format in all cases: in vivo
Male Sprague-Dawley rats [1] = test: Spinal anesthetic effect (spinal blockade) after intrathecal injection in rats; set-up: AUC of time-% PE curve, spinal blockade of motor function / AUC of time-% PE curve, spinal blockade of proprioception / AUC of time-% PE curve, spinal blockade of nociceptive reaction: unit not given beside the values; settings: for AUC of time-% PE curve, spinal blockade of motor function / AUC of time-% PE curve, spinal blockade of nociceptive reaction / AUC of time-% PE curve, spinal blockade of proprioception: 2 ED50 when administered independently, ED50 of each drug when co-administered, mean ± SEM; for Motor function ED50 (95% CI): spinal blockade of motor function; for Motor function ED50 (95% CI) / Nociceptive reaction ED50 (95% CI) / Proprioception ED50 (95% CI): intrathecal injection; for Nociceptive reaction ED50 (95% CI): spinal blockade of nociceptive reaction; for Proprioception ED50 (95% CI): spinal blockade of proprioception; for Mean value ED25 / Mean value ED50 / Mean value ED75: spinal blockade, mean of motor function, proprioception and nociceptive reaction
Experimental: (§1) Male Sprague-Dawley rats (weighing about 300 to 350 g); for each dose of each drug, n=6.
In brief, for preparation, the hairs on the back of each rat were shaved, and the shaved back was sterilized with iodine.
After three minutes, 50 μL of each of the tested drugs was injected via a 27-gauge needle attached to a 100-μL syringe (Hamilton, Reno, Nev.) into the intrathecal space between the fourth and fifth lumbar vertebrae. The development of spinal blockade was observed from the paralysis of the hind limbs of the rats.
The magnitude of nerve block (including blocking of motor function, proprioception, and nociceptive reaction) was expressed as the percentage of possible effect (hereinafter referred to as % PE), and the maximal value of % PE was expressed as the percentage of maximal possible effect (hereinafter referred to as % MPE).
Motor function was evaluated by measuring the extensor postural thrust of the right hind limbs of the rats using a digital platform balance (Mettler Toledo, Switzerland, model PB1502-S). To test the extensor postural thrust, the rat was held upright with the hind limb extended, so that the body weight of the rat was supported by the distal metatarsus and toes. The extensor postural thrust could be measured as the force of the right hind limb of the rat thrusting the platform balance.
A reduction in the force, resulting in extensor muscle tone, was considered as a motor deficit. A force less than 20 g (i.e., a weight of the “flaccid limb”) was considered absence of an extensor postural thrust or 100% motor block or 100% MPE.
Proprioception was evaluated based on resting posture and postural reactions (including tactile placing and hopping). First, the front half of the rat body and one of the hind limbs were lifted off the ground at the same time so that the rat was standing on one hind limb. Then, the rat was moved laterally, which normally evoked a prompt hopping response of the weight-bearing hind limb of the rat in the direction of movement so as to avoid falling. A predominantly proprioceptive block caused a delayed hopping followed by greater lateral hops. […] Functional deficits were classified into four grades: 3 (normal or 0% MPE), 2 (slightly impaired), 1 (severely impaired), and 0 (completely impaired or 100% MPE).
Nociceptive reaction was evaluated by the withdrawal reflex or vocalization elicited by the pinch of a skin fold over the back at 1 cm near the proximal part of the tail, the lateral metatarsus of the bilateral hind limbs, and the dorsal part of the mid-tail. At each testing time, only one pinch was given to each of the abovementioned four testing sites, and the time interval between stimulations at different sites was around 2 seconds. Nociceptive reactions were classified into five grades: 4 (normal or 0% MPE), 3 (25% MPE), 2 (50% MPE), 1 (75% MPE), and 0 (absent or 100% MPE).
The potency of each drug on spinal blockades was compared using ED50.
Duration was defined as the interval from injection of the tested drugs to complete recovery. The ED25, ED50 and ED75 obtained according to the SAS NLIN analysis in the preceding section “C. Potency evaluation” were used in this experiment.
Regarding the method of evaluating the effect of co-administration, dextromethorphan hydrobromide monohydrate was used as an example.
After the tests, the time of measurement of each drug and its corresponding % PE were plotted to obtain the time-% PE curves of each drug. The area under the curve (AUC) of time-% PE was calculated using the trapezoidal rule, and was used to evaluate the effect of the co-administration of the drugs.
Statistical software, SPSS for Windows® (version 10.0.7) was used. Data were represented as mean±SEM.

sciatic nerve = test: Sciatic nerve blockade after injection at the sciatic nerve notch in rats; set-up: AUC of time-% PE curve, sciatic nerve blockade of motor function / AUC of time-% PE curve, sciatic nerve blockade of proprioception / AUC of time-% PE curve, sciatic nerve blockade of nociceptive reaction: unit not given beside the values; settings: for ED50: Rattus norvegicus
Experimental: as §1
In brief, the rats were slightly anesthetized by inhalation of a low concentration of sevoflurane. Then, 200 μL of tested drugs were injected at the sciatic nerve notch at the left hind limb of the rat using a 27-gauge needle connected to a tuberculin syringe (Becton Dickinson, USA, model BND309623-BX). Thereafter, development of sciatic nerve blockade was observed from the paralysis of the left hind limb of the rat. The right hind limb served as a control during the subsequent functional assay
For proprioception, the front half of the rat body and the right hind limb were off the ground at the same time so that the rat was standing on the left hind limb during the measurement.
The differences resided in that: The sciatic nerve notch injections of ED25, ED50 and ED75 were conducted based on the method described in the preceding section “A. Drug injection” of this example. Evaluations of motor function, proprioception and nociceptive reaction were conducted based on the method described in section “B. Neurobehavioral evaluations” of this example.
The differences resided in that: Before the statistical analysis, Shapiro-Wilk test was used to evaluate whether the data were, theoretically, normally distributed.

Male Sprague-Dawley rats [2] = test: Infiltrative cutaneous anesthesia (inhibition of cutaneous trunci muscle reflex, CTMR) after subcutaneous injection in rats
Experimental: Male Sprague-Dawley rats (weighing about 200 to 250 g); for each dose of each drug, n=8.
In brief, hairs on the dorsal surface (about 10×10 cm^2) of the thoracolumbar region of the rat were shaved, and the shaved surface was sterilized with iodine for preparation. To reduce the number of animals used, the back of the rat was further divided into left and right parts. One drug was injected first at the right part. After a washout period of one week, another drug was injected at the left part.
0.6 mL of drug was injected subcutaneously under the dorsal surface of the thoracolumbar region of the rat using a 30-gauge needle attached to a syringe (Becton Drive, Franklin Lakes, USA). The subcutaneous injection would result in a circular elevation (i.e., a wheal) of the skin, about 2 cm in diameter. The elevation was marked with ink within 1 minute after injection.
CTMR refers to the reflex movement of the skin of the back caused by twitching of the lateral thoracispinal muscle in response to local dorsal cutaneous stimulation. Essentially, a von Frey filament (No.15; Somedic Sales AB, Sweden) to which a cut end of an 18-gauge needle was affixed was used to produce a standard nociceptive stimulus (strength: 19 g). Six pinpricks (at a frequency of 0.5-1 Hz) were applied to a single marked wheal during each test. […] For example, absence of any response to all of the 6 pinpricks was defined as a complete nociceptive block (i.e., 100% MPE).
The difference resided in that subcutaneous injections of ED25, ED50 and ED75 of the drugs were performed based on the method described in the section “A. Drug injection” of this example, and evaluation of the infiltrative cutaneous anesthetic effect was performed based on the method described in the section “B. Neurobehavioral evaluation” of this example.

[3] = read-out: Motor function ED50 (95% CI)
[4] = read-out: Nociceptive reaction ED50 (95% CI)
[5] = read-out: Proprioception ED50 (95% CI)
[6] = rats, 2ED50 when administered independently, ED50 of each drug when co-administered, mean ± SEM
[7] = dosage of 6.7 mg/kg, sciatic nerve notch injection, rats
[8] = infiltrative cutaneous anesthesia, rats, 2ED50 when administered independently, ED50 for co-administration, mean ± SEM, hydrochloride
[9] = infiltrative cutaneous anesthesia, subcutaneous injection, rats
[10] = subcutaneous dose of ED75, rats, mean±SEM
[11] = intrathecal dose of ED75, injection to complete recovery, rats
[12] = intrathecal dose of ED75, rats, mean±SEM
[13] = intrathecal, rats, hydrochloride

SMILES: COc1ccc2c(c1)[C@@]13CCCC[C@H]1[C@@H](C2)NCC3.Cl [3-methoxymorphinan hydrochloride]
- % MPE of spinal blockades of motor function, proprioception and nociceptive reaction (range over the three functions) (Male Sprague-Dawley rats [1]; intrathecal dose of ED75, rats): 66-79 % MPE
- duration of spinal blockades of motor function, proprioception and nociceptive reaction (range over the three functions) (Male Sprague-Dawley rats [1]; intrathecal dose of ED75, rats): 28 to 35 min
- effect of co-administration with bupivacaine hydrochloride on spinal blockade (Male Sprague-Dawley rats [1]; intrathecal, rats, ED50 of each drug): additive effect
- AUC of time-% PE curve, spinal blockade of motor function (Male Sprague-Dawley rats [1]; intrathecal, rats): 1265 ± 232
- AUC of time-% PE curve, spinal blockade of nociceptive reaction (Male Sprague-Dawley rats [1]; intrathecal, rats): 2081 ± 227
- AUC of time-% PE curve, spinal blockade of proprioception (Male Sprague-Dawley rats [1]; intrathecal, rats): 1917 ± 254
- Motor function ED50 (95% CI) (Male Sprague-Dawley rats [1]; rats): 0.45 (0.43–0.47) mg
- Nociceptive reaction ED50 (95% CI) (Male Sprague-Dawley rats [1]; rats): 0.39 (0.37–0.42) mg
- Proprioception ED50 (95% CI) (Male Sprague-Dawley rats [1]; rats): 0.40 (0.38–0.43) mg
- Mean value ED25 (Male Sprague-Dawley rats [1]; intrathecal, rats): 0.33 mg
- Mean value ED50 (Male Sprague-Dawley rats [1]; intrathecal, rats): 0.41 mg
- Mean value ED75 (Male Sprague-Dawley rats [1]; intrathecal, rats): 0.53 mg
- sciatic nerve blocking effect on nociceptive reaction compared with motor function (sciatic nerve; ED50 basis, p<0.01, rats): more potent sciatic nerve blocking effect on nociceptive reaction than on motor function
- ED50 (sciatic nerve; read-out: Mean ED50): 6.68 mg/kg
- ED50 (sciatic nerve; [3]): 7.4 mg/kg
- ED50 (sciatic nerve; [4]): 5.89 mg/kg
- ED50 (sciatic nerve; [5]): 6.76 mg/kg
- effect of co-administration with lidocaine hydrochloride on sciatic nerve blockades (sciatic nerve; rats, ED50 of each drug): additive effect
- AUC of time-% PE curve, sciatic nerve blockade of motor function (sciatic nerve; [6]): 4559 ± 584
- AUC of time-% PE curve, sciatic nerve blockade of nociceptive reaction (sciatic nerve; [6]): 8026 ± 1437
- AUC of time-% PE curve, sciatic nerve blockade of proprioception (sciatic nerve; [6]): 5191 ± 652
- duration of sciatic nerve blockade compared with lidocaine hydrochloride (sciatic nerve; same effective doses (ED25, ED50 or ED75), rats): longer reaction duration

SMILES: CCN(CC)CC(=O)Nc1c(C)cccc1C [Lidocaine hydrochloride, reference compound]
- ED50 (sciatic nerve; [3]): 2.67 mg/kg
- ED50 (sciatic nerve; [4]): 2.35 mg/kg
- ED50 (sciatic nerve; [5]): 2.57 mg/kg
- % MPE of sciatic nerve blockade of motor function (sciatic nerve; [7]): 100 % MPE
- % MPE of sciatic nerve blockade of nociceptive reaction (sciatic nerve; [7]): 100 % MPE
- % MPE of sciatic nerve blockade of proprioception (sciatic nerve; [7]): 100 % MPE
- duration of sciatic nerve blockade of motor function (sciatic nerve; [7]): about 63±6 minutes
- duration of sciatic nerve blockade of nociceptive reaction (sciatic nerve; [7]): ~83 ± 6 min
- duration of sciatic nerve blockade of proprioception (sciatic nerve; [7]): ~73 ± 4 min
- ED50 (Male Sprague-Dawley rats [2]; Rattus norvegicus, sc, infiltrative cutaneous anesthesia, subcutaneous injection, rats, read-out: ED50 (95% CI)): 7 mg/kg
- % MPE (Male Sprague-Dawley rats [2]; [8]): 90 ± 5 % MPE and 88 ± 6 % MPE
- Duration (Male Sprague-Dawley rats [2]; [8]): 51 ± 3 min and 52 ± 4 min
- ED25 (Male Sprague-Dawley rats [2]; [9]): 5.31 mg/kg
- ED75 (Male Sprague-Dawley rats [2]; [9]): 9.24 mg/kg
- % MPE of cutaneous nociceptive block (Male Sprague-Dawley rats [2]; [10]): 72±7 % MPE
- duration of cutaneous nociceptive block (Male Sprague-Dawley rats [2]; [10]): ~33 ± 4 min

SMILES: CCCCN1CCCCC1C(=O)Nc1c(C)cccc1C (centres unmarked) [Bupivacaine hydrochloride, reference compound]
- duration of spinal blockade of motor function (Male Sprague-Dawley rats [1]; [11]): about 25±3 minutes
- duration of spinal blockade of nociceptive reaction (Male Sprague-Dawley rats [1]; [11]): ~63 ± 7 min
- duration of spinal blockade of proprioception (Male Sprague-Dawley rats [1]; [11]): ~32 ± 4 min
- % MPE of spinal blockade of motor function (Male Sprague-Dawley rats [1]; [12]): about 71±3 % MPE
- % MPE of spinal blockade of nociceptive reaction (Male Sprague-Dawley rats [1]; [12]): ~81±3 % MPE
- % MPE of spinal blockade of proprioception (Male Sprague-Dawley rats [1]; [12]): ~72±4 % MPE
- AUC of time-% PE curve, spinal blockade of motor function (Male Sprague-Dawley rats [1]; [13]): 1292 ± 113 and 1238 ± 147 and 1383 ± 131
- AUC of time-% PE curve, spinal blockade of nociceptive reaction (Male Sprague-Dawley rats [1]; [13]): 4378 ± 184 and 4512 ± 229 and 4410 ± 225
- AUC of time-% PE curve, spinal blockade of proprioception (Male Sprague-Dawley rats [1]; [13]): 2597 ± 245 and 2638 ± 308 and 2774 ± 299
- Motor function ED50 (95% CI) (Male Sprague-Dawley rats [1]; rats): 0.12 (0.11–0.12) mg
- Nociceptive reaction ED50 (95% CI) (Male Sprague-Dawley rats [1]; rats): 0.09 (0.08–0.09) mg
- Proprioception ED50 (95% CI) (Male Sprague-Dawley rats [1]; rats): 0.10 (0.10–0.11) mg
- Mean value ED25 (Male Sprague-Dawley rats [1]; intrathecal, rats): 0.08 mg
- Mean value ED50 (Male Sprague-Dawley rats [1]; intrathecal, rats): 0.11 mg
- Mean value ED75 (Male Sprague-Dawley rats [1]; intrathecal, rats): 0.14 mg
